Experimental data: patent US5814634A, “Alkylenediamine derivative anti-ulcer drug and antibacterial drug” (Shiseido Co. Ltd., priority 1996, dated 1998)

Assays:
[1] = tested on: stress ulcer; assay: WIS: Restraint and Water Immersion Stress-Induced Ulcer Inhibition Test; type: in vivo, rat (male Crj:SD or Slc:SD); conditions: for WIS: ulcer formation inhibitory rate: 100 mg/kg oral, rats, water immersion stress 7 hours; for effect (anti-ulcer tests): comparison of examples within compound group 1-1
Experimental: WIS: Restraint and Water Immersion Stress-Induced Ulcer Inhibition Test
The degree of inhibition of the stress ulcer formation is tested.
Male Crj:SD or Slc:SD rats (6 to 7-week-old) were fasted overnight, but allowed free access to water. Each group has 5 to 8 of these rats. The sample compound was dissolved or suspended in an aqueous solution of 0.3% sodium carboxymethylcellulose or 0.05% Tween 80 and then was orally administered (100 mg/10 ml/kg). To a control group, the vehicle was administered. 10 minutes later, the rats were placed in a stress cage and immersed to the level of xipfoid process in a water bath (21° C.) for 7 hours. At the end of the stress, the rats were sacrificed by inhalation of ether or carbon dioxide. Then, the stomach of each was removed, inflated by injecting 10 ml of 5% formalin neutral buffer solution, and immersed in 1% formalin neutral buffer solution for 30 minutes or more to be fixed. The stomach was incised along the greater curvature and then the length of each erosion in the glandular portion was determined under dissecting microscope. The sum of the length of erosions per stomach was defined as ulcer index (UI).
The effect obtained when 100 mg/kg of the sample compound had been administered was expressed as ulcer formation inhibitory rate (%) as follows: [formula] VOL, TAO: Acid Secretion Inhibition Test In Vivo i) Meaning

[2] = tested on: Male Slc:ICR mice; design: species or system mouse (male Slc:ICR); conditions: mouse, in vivo
Experimental: AT: Single Dose Toxicity Pretest
Male Slc:ICR mice (5-week-old) were used. Each group has 3 to 5 mice and each mouse was fasted, but allowed free access to water, for 4 to 5 hours from 9 a.m. in the test day. Then, 2,000 mg/10 ml/kg of the sample compound dissolved or suspended in an aqueous solution of 0.5% sodium carboxymethyl cellulose was orally administered thereto. To a control, only the vehicle was administered. […] The body weight was measured before and after the fasting as well as at the same time everyday. The dead animals were immediately subjected to autopsy and their organs were observed microscopically. Also, the living animals were sacrificed with ether or carbon dioxide one week after the administration and then their organs were observed microscopically.
The toxicity at the single dose of 2,000 mg/kg of the sample compound was expressed as being classified into 5 levels.
5: Mortality rate is 0%; no toxicity is found at all both in behavior and organs.
4: Mortality rate is 0%; while no toxicity is found in organs, slight toxicity is observed in behavior and body weight increase.
3: While there is a dead animal (though not all the animals are dead), no toxicity is found in organs.
2: Regardless of whether there is a dead animal or not, toxicity is found in organs.
1: All the animals are dead.

[3] = in vitro; conditions: rabbit, gastric mucosal cells
[4] = tested on: isolated gastric fundic gland; assay: CAP: Acid Secretion Inhibition Test In Vitro ([14C]-aminopyrine uptake); type: cell-based, rabbit (male Japanese White); conditions: Oryctolagus cuniculus, 40 min; 10^-5 M compound, 10^-5 M histamine, rabbit isolated gastric fundic gland, 37° C., 40 minutes; read-out: CAP: acid secretion inhibitory rate
Experimental: With respect to the gastric juice volume (VOL) and the total acid output (TAO), the effects obtained when 100 mg/kg of the sample compound had been administered were expressed as their respective inhibitory rates (%) as follows: [formula] CAP: Acid Secretion Inhibition Test In Vitro i) Meaning
The acid secretion inhibitory activity in a cell level is studied. It can also be used for studying the mechanism of the effect.
ii-a) Preparation of isolated gastric fundus gland suspension
First, an isolated gastric fundic gland sample was prepared. […] Immediately thereafter, the stomach was removed and, after its pyloric and cardiac antrum were severed, incised along its greater curvature into two sheets. The gastric contents adhering to the mucosal surface was washed out with ice-cooled PBS (-) and then carefully washed therein. The gastric wall was spread on a cork board with its mucosal surface facing up and the feed and mucus thereon were completely removed with sterile gauze. The mucosa was separated therefrom by a spatula and then collected in ice-cooled PBS (-). After being washed twice with PBS (-), the mucosa was minced into 2-3 mm^3 pieces by scissors. These pieces were further washed twice with a nutrient solution. The nutrient solution comprises 132.4 mM of NaCl, 5.4 mM of KCl, 5 mM of Na2 HPO4.12H2 O, 1 mM of NaH2 PO4.2H2 O, 1.2 mM of MgSO4, 1 mM of CaCl2, 25 mM of HEPES, 2 mg/ml of glucose, and 1 mg/ml of BSA. Into 70 ml of the nutrient solution containing 1 mg/ml of collagenase, minced mucosal pieces were dispersed and intensely stirred in a conical flask with a stirrer at 37° C. for 40 to 60 minutes. During this period, 100% O2 was sprayed on the nutrient solution surface and the pH was appropriately measured such that it was immediately adjusted to pH 7.4, when the value was therebelow, with a base. The nutrient solution was added to the reaction solution so as to attain the total amount of about 200 ml. After being filtered through a mesh, the suspension was divisionally introduced into 50 ml centrifuge tubes and left for 15 minutes such that gastric fundic gland was deposited. The supernatant was repeatedly removed by an aspirator, dispersed in the nutrient solution, and then left such that the gastric fundic gland was washed three times. At this time, without using a pipette, the suspension was alternately introduced into two centrifuge tubes so as to effect dispersion. The number of cells was counted under microscope and adjusted to 1.6×10^6 cells/ml.
ii-b) [^14 C]-aminopyrine uptake test
Then, [^14 C]-aminopyrine uptake test was performed. After an Eppendorf tube was weighed, 10 μl (final concentration: 10^-5 M) of histamine dissolved in the above-mentioned nutrient solution, 10 μl (final concentration: 10^-5 M) of the test compound dissolved in DMSO, and 10 μl (final concentration: 0.05 μCi/ml) of [^14 C]-aminopyrine diluted with the nutrient solution were introduced therein and then 970 μl of the isolated gastric fundic gland suspension prepared above was added thereto. Subsequently, this mixture was shaken at 37° C. for 40 minutes at 125 cycles/minute. After being centrifuged for 30 minutes, 200 μl of its supernatant was collected into a mini-vial, while the rest was removed by an aspirator. The gland pellet was completely dried as the tube with its lid being opened was kept for one night in a drying oven at 80° C. and then the lid was closed and the weight was determined at room temperature. Then 100 μl of 1N KOH was added thereto and the tube with its lid being closed was treated at 60° C. for 1 to 2 hours so as to dissolve the pellet. Then, the contents thereof were transferred to a mini-vial. Into the mini-vial containing the supernatant or gland pellet, 4 ml of Atomlite™ was added and then the radioactivity was measured by a liquid scintillation counter. […]

Compound | WIS: ulcer formation inhibitory rate [1] [%] | AT: toxicity at single dose, 5 levels [2] | effect (anti-ulcer tests) ([1]; result in words) | cytotoxicity at 4 h, 100 µM [3] [%] | inhibition at 10 µM [4] [%] | anti-ulcer effect ([1]; result in words)
CC(C)=CCC/C(C)=C\COc1ccc(C(=O)NCCN2CCCCC2)cc1 [Example 2] | 79 | 3 |  |  |  | 
CC(C)=CCC/C(C)=C/COc1cccc(C(=O)NCCN2CCCCC2)c1 [Example 4] | 84 | 3 |  |  |  | 
CC(C)=CCC/C(C)=C/COc1ccc(F)cc1C(=O)NCCN1CCCCC1 [Example 6] | 80 | 3 | the effect has been maintained | 16 |  | 
CCN(CCN1CCCCC1)C(=O)c1ccc(OC/C=C(\C)CCC=C(C)C)cc1 [Example 8] | 67 |  | a sufficient effect can be obtained | 41 | 100 | 
CC(C)=CCC/C(C)=C/COc1ccc(OC/C=C(\C)CCC=C(C)C)c(C(=O)NCCN2CCCCC2)c1 [Example 13] | 67 | 5 |  | -5 | 100 | 
CC(C)=CCC/C(C)=C/COc1cc(OC/C=C(\C)CCC=C(C)C)cc(C(=O)NCCN2CCCCC2)c1 [Example 14] | 66 | 3 |  | 26 |  | 
CC(C)=CCOc1ccc(OCC=C(C)C)c(C(=O)NCCN2CCCCC2)c1 [Example 17] | 70 | 3 |  | -16 | 100 | 
CC(C)=CCOc1cc(C(=O)NCCN2CCCCC2)cc(OCC=C(C)C)c1OCC=C(C)C [Example 19] | 57 | 4 |  |  |  | 
COc1ccc(OC/C=C(\C)CCC=C(C)C)c(C(=O)NCCN2CCCCC2)c1 [Example 20] | 71 | 3 |  | 35 |  | 
COc1ccc(C(=O)NCCN2CCCCC2)cc1OC/C=C(\C)CCC=C(C)C [Example 23] | 56 | 3 |  | 43 |  | 
COc1cc(C(=O)NCCN2CCCCC2)cc(OC/C=C(\C)CCC=C(C)C)c1OC [Example 24] | 72 | 5 |  | 30 |  | more anti-ulcer effect
COc1cc(C(=O)NCCN2CCCCC2)ccc1OC/C=C(\C)CCC=C(C)C [Example 25] | 44 | 3 |  | 48 |  | 
CC(C)=CCC/C(C)=C/COc1cccc(C(=O)NCCN2CCOCC2)c1 [Example 29] | 63 | 5 |  | 16 | 99 | 
CC(C)=CCC/C(C)=C/CC/C(C)=C/COc1ccc(C(=O)NCCN2CCOCC2)cc1 [Example 32] | 55 | 5 |  | 58 | 99 | 
CC(C)=CCC/C(C)=C/CSc1ccccc1C(=O)NCCN1CCOCC1 [Example 33] | 49 |  |  | 5 | 100 | 
CC(C)=CCOc1cc(C(=O)NCCN2CCOCC2)cc(OCC=C(C)C)c1OCC=C(C)C [Example 39] | 76 | 4 |  |  |  | 
CCN1CCN(CCNC(=O)c2ccc(OC/C=C(\C)CCC=C(C)C)cc2)CC1 [Example 45] | 36 |  |  | 30 | 99 | 
CC(C)=CCC/C(C)=C/COc1ccc(C(=O)NCCN2CCN(CCC(C)C)CC2)cc1 [Example 47] |  |  |  |  | 101 | 
CC(C)=CCC/C(C)=C/COc1ccc(C(=O)NCCN2CCN(CC(C)(C)C)CC2)cc1 [Example 48] |  |  |  |  | 100 | 
CCC(CC)CN1CCN(CCNC(=O)c2ccc(OC/C=C(\C)CCC=C(C)C)cc2)CC1 [Example 49] |  |  |  |  | 99.8 | 
CCCCN1CCN(CCNC(=O)c2ccc(OC/C=C(\C)CCC=C(C)C)cc2)CC1 [Example 50] |  |  |  |  | 95.9 | 
CCCCC(CC)CN1CCN(CCNC(=O)c2ccc(OC/C=C(\C)CCC=C(C)C)cc2)CC1 (stereo not drawn) [Example 51] |  |  |  |  | 94.8 | 
CC(C)=CCC/C(C)=C/COc1ccc(C(=O)NCCN2CCN(c3ccccc3)CC2)cc1 [Example 52] |  |  |  | 11 | 99.1 | 
COc1ccc(N2CCN(CCNC(=O)c3ccc(OC/C=C(\C)CCC=C(C)C)cc3)CC2)cc1 [Example 53] |  |  |  | 7 | 98.7 | 
CC(C)=CCC/C(C)=C/COc1ccc(C(=O)NCCN2CCN(CC(=O)NC(C)C)CC2)cc1 [Example 54] |  |  |  |  | 100 | 
CC(C)=CCC/C(C)=C/COc1ccc(C(=O)NCCN2CCN(Cc3ccccc3)CC2)cc1 [Example 56] |  |  |  |  | 99.4 | 
CC(C)=CCC/C(C)=C/COc1ccc(C(=O)NCCN2CCN(Cc3ccc(F)cc3)CC2)cc1 [Example 57] |  |  |  |  | 99.4 | 
CC(C)=CCC/C(C)=C/COc1ccc(C(=O)NCCN2CCN(Cc3ccc4c(c3)OCO4)CC2)cc1 [Example 58] | 48 |  |  |  | 100 | 
CC(C)=CCC/C(C)=C/COc1ccc(C(=O)NCCN2CCN(c3nccs3)CC2)cc1 [Example 60] |  |  |  | 7 | 100 | 
CC(C)=CCC/C(C)=C/COc1ccc(C(=O)NCCN2CCN(c3ncccn3)CC2)cc1 [Example 61] |  |  |  | 3 | 100 | 
